# Structures can show the parent of a compound that is named as a salt.
# Tests used:
# [1] = biological target: Human 5-HT Transporter (Homo sapiens, UniProt P31645); experiment: Inhibition of 3H-5-HT Uptake by Cells Possessing the Human 5-HT Transporter (HC 5HT Transporter), Jar cells; settings: HC-5HTC Transporter Ki (nM), Jar cells treated with staurosporine
# Human 5-HT Transporter, sequence (P31645 whole entry): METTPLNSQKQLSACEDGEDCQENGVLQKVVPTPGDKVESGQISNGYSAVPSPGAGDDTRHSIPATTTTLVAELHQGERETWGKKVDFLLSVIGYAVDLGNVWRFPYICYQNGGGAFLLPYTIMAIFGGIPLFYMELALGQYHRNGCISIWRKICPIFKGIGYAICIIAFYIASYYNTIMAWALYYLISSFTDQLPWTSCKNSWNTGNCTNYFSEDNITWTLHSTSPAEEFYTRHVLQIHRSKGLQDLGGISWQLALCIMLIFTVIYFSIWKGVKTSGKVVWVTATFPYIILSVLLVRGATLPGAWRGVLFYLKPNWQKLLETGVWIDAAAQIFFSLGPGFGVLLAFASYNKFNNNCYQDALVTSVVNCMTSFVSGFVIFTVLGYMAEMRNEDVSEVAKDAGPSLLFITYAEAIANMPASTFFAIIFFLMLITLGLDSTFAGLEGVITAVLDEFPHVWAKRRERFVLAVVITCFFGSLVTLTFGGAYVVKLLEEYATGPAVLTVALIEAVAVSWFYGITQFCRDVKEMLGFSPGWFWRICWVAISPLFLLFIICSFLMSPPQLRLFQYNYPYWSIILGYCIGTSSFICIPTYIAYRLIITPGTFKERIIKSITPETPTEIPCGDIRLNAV
SMILES,Ki [1],melting point
"COc1ccc2occ([C@H]3CC[C@H](N4CCN(c5cc(F)cc6cccnc56)CC4)CC3)c2c1 [Compound 68, 6-fluoro-8-{4-[4-trans(5-methoxy-1-benzofuran-3-yl)cyclohexyl]piperazin-1-yl}quinoline]",3290 nM,152 to 155 °C
"Fc1cc(N2CCN([C@H]3CC[C@H](c4csc5ccc(F)cc54)CC3)CC2)c2ncccc2c1 [Compound 48, 6-fluoro-8-{4-[4-trans(5-fluoro-1-benzothien-3-yl)cyclohexyl]piperazin-1-yl}quinoline]",739 nM,143 to 144 °C
"COc1cc(N2CCN([C@H]3CC[C@@H](c4csc5ccccc54)CC3)CC2)c2ncccc2c1 [Compound 45, 8-{4-[4-cis(1-benzothien-3-yl)cyclohexyl]-1-piperazinyl}-6-methoxyquinoline]",1080 nM,148 to 150 °C
"Fc1ccc(N2CCN([C@H]3CC[C@@H](c4coc5ccccc54)CC3)CC2)c2ncccc12 [Compound 53, 8-{4-[4-cis(1-benzofuran-3-yl)cyclohexyl]-1-piperazinyl}-5-fluoroquinoline]",3910 nM,142 to 144 °C
"Fc1cc(N2CCN([C@H]3CC[C@H](c4csc5ccccc54)CC3)CC2)c2ncccc2c1 [Compound 44, 8-{4-[4-trans(1-benzothien-3-yl)cyclohexyl]-1-piperazinyl}-6-fluoroquinoline]",1620 nM,195 °C
"COc1ccc2occ([C@H]3CC[C@@H](N4CCN(c5cc(F)cc6cccnc56)CC4)CC3)c2c1 [Compound 67, 6-fluoro-8-{4-[4-cis(5-methoxy-1-benzofuran-3-yl)cyclohexyl]piperazin-1-yl}quinoline]",1200 nM,153 to 160 °C
"COc1cccc2c1occ2[C@H]1CC[C@H](N2CCN(c3cc(F)cc4cccnc34)CC2)CC1 [Compound 60, 6-fluoro-8-{4-[4-trans(7-methoxy-1-benzofuran-3-yl)cyclohexyl]-1-piperazinyl}quinoline]",212 nM,195 to 197 °C
"Fc1ccc2scc([C@H]3CC[C@@H](N4CCN(c5ccc(Cl)c6cccnc56)CC4)CC3)c2c1 [Compound 51, 5-chloro-8-{4-[4-cis(5-fluoro-1-benzothien-3-yl)cyclohexyl]piperazin-1-yl}quinoline]",1150 nM,192 to 197 °C
"Clc1cc(N2CCN([C@H]3CC[C@H](c4csc5ccccc54)CC3)CC2)c2ncccc2c1 [Compound 42, 8-{4-[4-trans(1-benzothien-3-yl)cyclohexyl]-1-piperazinyl}-6-chloroquinoline]",184 nM,143 to 144 °C
"COc1cccc2c1occ2[C@H]1CC[C@H](N2CCN(c3cccc4cccnc34)CC2)CC1 [Compound 62, 8-{4-[4-trans(7-methoxy-1-benzofuran-3-yl)cyclohexyl]-1-piperazinyl}quinoline]",38 nM,195 to 197 °C
"Fc1ccc(N2CCN([C@H]3CC[C@H](c4coc5ccccc54)CC3)CC2)c2ncccc12 [Compound 54, 8-{4-[4-trans(1-benzofuran-3-yl)cyclohexyl]-1-piperazinyl}-5-fluoroquinoline]",220 nM,162 to 164 °C
"COc1cc(N2CCN([C@H]3CC[C@H](c4csc5ccccc54)CC3)CC2)c2ncccc2c1 [Compound 46, 8-{4-[4-trans (1-benzothien-3-yl)cyclohexyl]-1-piperazinyl}-6-methoxyquinoline]",802 nM,166 to 168 °C
"COc1cccc2c1occ2[C@H]1CC[C@@H](N2CCN(c3cccc4cccnc34)CC2)CC1 [Compound 61, 8-{4-[4-cis(7-methoxy-1-benzofuran-3-yl)cyclohexyl]-1-piperazinyl}quinoline]",96.8 nM,66 to 67 °C
"COc1cc(N2CCN(CCc3coc4c(OC)cccc34)CC2)c2ncccc2c1 (as salt: HCl) [Compound 19, 8-{4-[2-(7-methoxy-1-benzofuran-3-yl)ethyl]-1-piperazinyl}-6-methoxy-quinoline]",–,86 °C
"COc1cccc2c1occ2[C@H]1CC[C@@H](N2CCN(c3cc(F)cc4cccnc34)CC2)CC1 [Compound 59, 6-fluoro-8-{4-[4-cis(7-methoxy-1-benzofuran-3-yl)cyclohexyl]-1-piperazinyl}quinoline]",455 nM,75 to 83 °C
"COc1ccc2occ(CCN3CCN(c4cccc5cccnc45)CC3)c2c1 [Compound 21, 8-{4-[2-(5-methoxy-1-benzofuran-3-yl)ethyl]-1-piperazinyl}-quinoline]",43.6 nM,78 °C

# Further lines, results first:
Ki [1],melting point,SMILES
106 nM,72 °C,"COc1ccc2occ(CCN3CCN(c4cc(Cl)cc5cccnc45)CC3)c2c1 [Compound 22, 8-{4-[2-(5-methoxy-1-benzofuran-3-yl)ethyl]-1-piperazinyl}-6-chloro-quinoline]"
1440 nM,147 to 151 °C,"Fc1cc(N2CCN([C@H]3CC[C@@H](c4csc5ccccc54)CC3)CC2)c2ncccc2c1 [Compound 43, 8-{4-[4-cis(1-benzothien-3-yl)cyclohexyl]-1-piperazinyl}-6-fluoroquinoline]"
3040 nM,143 to 146 °C,"COc1cccc2c1occ2[C@H]1CC[C@@H](N2CCN(c3ccc(F)c4cccnc34)CC2)CC1 [Compound 57, 5-fluoro-8-{4-[4-cis(7-methoxy-1-benzofuran-3-yl)cyclohexyl]-1-piperazinyl}quinoline]"
–,91 to 93 °C,"Fc1cc(N2CCN(C3CCC(c4cc5ccccc5o4)CC3)CC2)c2ncccc2c1 (stereo not shown) [Compound 69, 8-[4-(4-benzofuran-2-yl-yclohexyl)-piperazin-1-yl]-6-fluoro-quinoline]"
337 nM,195 to 197 °C,"Fc1cc(N2CCN([C@H]3CC[C@H](c4coc5ccccc54)CC3)CC2)c2ncccc2c1 [Compound 56, 8-{4-[4-trans(1-benzofuran-3-yl)cyclohexyl]-1-piperazinyl}-6-fluoroquinoline]"
–,192 °C,"COc1cccc2c(C(C)CN3CCN(c4cccc5cccnc45)CC3)coc12 (stereo not shown) (as salt: HCl) [Compound 31, 8-{4-[2-(7-methoxy-1-benzofuran-3-yl)propyl]-1-piperazinyl}quinoline]"
338 nM,164 to 165 °C,"Clc1cc(N2CCN([C@H]3CC[C@@H](c4csc5ccccc54)CC3)CC2)c2ncccc2c1 [Compound 41, 8-{4-[4-cis-(1-benzothien-3-yl)cyclohexyl]-1-piperazinyl}-6-chloroquinoline]"
–,80 °C,"COc1cc(N2CCN(CCc3coc4ccc(F)cc34)CC2)c2ncccc2c1 (as salt: HCl) [Compound 16, 8-{4-[2-(5-fluoro-1-benzofuran-3-yl)ethyl]-1-piperazinyl}-6-methoxy-quinoline]"
3000 nM,184 to 186 °C,COc1cc(N2CCN([C@H]3CC[C@@H](c4cc5ccccc5s4)CC3)CC2)c2ncccc2c1 [Compound 70]

# Reference: US20090054454A1, “BENZOFURANYL- AND BENZOTHIENYL- PIPERAZINYL QUINOLINES AND METHODS OF THEIR USE” (priority 2007, published 2009)
